Patent EP4721737A1, “USE OF PHARMACEUTICAL COMPOSITION COMPRISING COMPOUND HAVING BIS(AZANYLYLIDENE) SULFONYL STRUCTURE FOR TREATING ANEMIA-RELATED DISEASES” (Scinnohub Pharmaceutical Co., Ltd., priority 2023, dated 2024)
Like-named read-outs stand apart in the source and are kept apart here.

Legend:
[1] = pharmacokinetic properties test in rats; type: in vivo; conditions: SD rat, single, plasma; for MRT last: read-out: MRT0-t; for Vd: read-out: Vss
Description: (§1) The pharmacokinetic properties of the compounds of the present disclosure in different animal species were investigated by measuring plasma drug concentrations following intravenous and oral gavage in mouse, rat, and dog.
(§2) i. The compounds were weighed, then the solvent (5% DMSO + 10% Solutol + 85% saline) was added to prepare the administration solution. ii. On the day before the experiment, animals in the oral administration group were fasted overnight (10-14 hours) and fed 4 hours after administration. iii. At each time point after administration, approximately 30 µL of venous blood was collected from an appropriate location in each group of animals and placed in a sodium heparin tube. Blood samples were placed on ice and centrifuged within 1 hour to separate plasma (centrifugation conditions: 6800 g, 6 min, 2-8°C). Plasma samples were stored at -80°C until analysis.
(§3) b) An LC-MS/MS analytical method was developed for measuring compound concentrations in mouse, rat, and dog plasma. This method was used to determine compound concentrations in biological samples obtained in this assay.
(§4) Pharmacokinetic parameters were calculated using Phoenix WinNonlin 7.0 using plasma drug concentration data at different time points.

wild-type mice = assay: in vivo efficacy study in wild-type mice (HGB, ATP, 2,3-DPG in whole blood); conditions: C57BL/6J, whole blood 2-3 hours after last administration; for HGB: vehicle control 14.9; for ATP: vehicle control 452.0; for 2,3-DPG: vehicle control 1727.8
Description: The effects of the compound on wild-type mice were evaluated by detecting the concentrations of HGB, ATP, and 2,3-DPG in the whole blood of mice.
• i. On the day of administration, the compound was weighed, then the vehicle was added to prepare the administration solution: vehicle: 5% DMSO + 10% Solutol + 85% Saline
i. Wild-type mice were randomly divided into groups based on body weight, with 8 mice per group.
• i. Whole blood sample was collected 2-3 hours after the last administration of the test animal for HGB assay.
• i. An LC-MS/MS method was established to determine the ATP and 2,3-DPG contents in whole blood sample 2-3 hours after the last administration of the test animal.

[2] = pharmacokinetic properties test in dogs; type: in vivo; conditions: dog, Beagle, single, plasma; for MRT last: read-out: MRT0-t; for Vd: read-out: Vss
Description: as §1, §2, §3, §4

[3] = biological target: T1, PKR in ex vivo red blood cells of patients with thalassemia (Homo sapiens, UniProt P30613); assay: ex vivo pyruvate kinase (PKR) activity experiment, red blood cells of patients with thalassemia; type: cell-based
T1 construct: endogenous in cells; host or cells: human red blood cells of thalassemia patients (Patients A-D)
T1 sequence (P30613 whole entry): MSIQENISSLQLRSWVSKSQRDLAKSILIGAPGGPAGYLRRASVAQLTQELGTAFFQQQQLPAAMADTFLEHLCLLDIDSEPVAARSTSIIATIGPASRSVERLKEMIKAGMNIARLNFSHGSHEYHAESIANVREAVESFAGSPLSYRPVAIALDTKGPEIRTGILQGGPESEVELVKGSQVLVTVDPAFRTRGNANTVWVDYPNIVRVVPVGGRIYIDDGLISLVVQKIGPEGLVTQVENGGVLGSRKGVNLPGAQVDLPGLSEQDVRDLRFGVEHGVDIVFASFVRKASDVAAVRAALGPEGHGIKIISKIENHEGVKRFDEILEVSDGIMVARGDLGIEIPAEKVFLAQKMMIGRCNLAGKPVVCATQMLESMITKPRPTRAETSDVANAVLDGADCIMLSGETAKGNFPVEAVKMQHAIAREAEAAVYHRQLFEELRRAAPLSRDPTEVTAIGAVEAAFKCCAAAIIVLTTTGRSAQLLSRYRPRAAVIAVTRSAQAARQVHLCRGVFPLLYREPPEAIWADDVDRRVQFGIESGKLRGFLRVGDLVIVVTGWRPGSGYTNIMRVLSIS
Description: To test the effects of the compound of the present disclosure on PKR activation in ex vivo red blood cells from healthy individuals and patients with thalassemia.
• i. 5 g of glucose, 85 mg of adenine, and 2.625 g of mannitol were weighed and added into a 50 mL centrifuge tube. 40 mL of PBS was added to dissolve (sonicate for 30 minutes until completely dissolved). The solution was filtered through a 0.22 µm filter, then added to 460 mL of sterile PBS and mixed thoroughly.
• i. Fresh human peripheral blood was collected. K2EDTA was used as the anticoagulant. 1 part anticoagulant with 9 parts blood was mixed, then centrifuged at 500 g for 10 minutes at room temperature to remove the plasma. • ii. Packed red blood cells: 1.5 volumes of PBS were added, then centrifuged at 2000 ×g for 5 minutes at room temperature. After centrifugation, the supernatant was removed. This step was repeated twice. • iii. Diluted red blood cells: 1.5 volumes of PBS were added, then resuspended and mixed thoroughly. • iv. The diluted red blood cells were slowly added to 0.5 volume of 70% isotonic solution (e.g., 7.5 mL of diluted red blood cells + 3 mL of 70% isotonic solution Percoll) and centrifuged at 4000 ×g for 20 minutes at 4°C. • v. The supernatant was removed. The red blood cells at the bottom were washed once with 4-5 mL of PBS to elute the Percoll gel, and then centrifuged at 2000 ×g for 5 minutes at room temperature. • vi. The supernatant was removed. The red blood cells were counted and then diluted in AGAM medium containing 10% FBS to a density of 2 × 10^8 cells/mL for storage at 4°C.
i. The red blood cells were seeded into a 96-well plate at a uniform density of 1 × 10^7 cells/mL, with 100 µL per well. The test compounds (dissolved in DMSO) were diluted and added to the cell culture medium, resulting in final compound concentrations of 3000, 1000, 300, 100, 10, 3, and 1 nM (with 1% DMSO). The cells and compounds were co-cultivated for 3 hours in a 37°C incubator with 5% CO2. Subsequently, the plate was centrifuged at 2000 g for 20 minutes, and the supernatant was discarded. 100 µL of red blood cell lysis buffer was added to the cell pellet, vortexed for 20 minutes, and centrifuged at 4000 g for 5 minutes. The supernatant was collected for analysis. ii. The reaction system was prepared according to the kit instructions (shown as the table below), 10 µL of the reaction system was added to each well of a 384-well plate, and 10 µL of red blood cell lysis buffer was took and mixed well (20 µL reaction system).
iii. A black, transparent-bottomed 384-well plate was placed in a microplate reader to measure fluorescence at 540/590 nm. The fluorescence was read every 2 minutes for 1 hour.
i. The Slope value was calculated over the assay time. Compound activation percentage was calculated using the 1% DMSO well as the control well. Activation percentage = (Slope of compound well / Slope of control well) × 100% ii. Dose-response curve was fit using the logarithmic compound concentration on the X-axis and the percent activation percentage on the Y-axis, the log(agonist) vs. response - variable slope function in GraphPad Prism 5 was used to determine the AC50 value for each compound on PKR activity. Y = min + (max−min)/(1+10^(∧)((LogAC50−X)×Hillslope)). [formula] The PKR agonist effects of the compound of the present disclosure on ex vivo red blood cells from healthy individuals and thalassemia patients were determined using the above assay. The AC50 values measured on ex vivo red blood cells from healthy individuals are as follows (A represents 0-100 nM, B represents 101-300 nM, and C represents 300-1000 nM): […]

[4] = 2.5 mg/kg oral gavage twice a day 14 days
[5] = 7.5 mg/kg oral gavage twice a day 14 days
[6] = 25 mg/kg oral gavage twice a day 14 days
[7] = thalassemia Patient A, read-out: AC50 (nM) Patient A
[8] = thalassemia Patient B, read-out: AC50 (nM) Patient B
[9] = thalassemia Patient C, read-out: AC50 (nM) Patient C
[10] = thalassemia Patient D, read-out: AC50 (nM) Patient D
[11] = 15 mg/kg oral gavage twice a day 14 days
[12] = 50 mg/kg oral gavage twice a day 14 days
[13] = 75 mg/kg oral gavage twice a day 14 days

| SMILES | AUC(0-t) ([1]; 1 mg/kg intravenous injection) | Cmax ([1]; 1 mg/kg intravenous injection) | Tmax ([1]; 1 mg/kg intravenous injection) | clearance ([1]; 1 mg/kg intravenous injection) | half-life ([1]; 1 mg/kg intravenous injection) | MRT last ([1]; 1 mg/kg intravenous injection) | Vd ([1]; 1 mg/kg intravenous injection) | AUC(0-t) ([1]; 10 mg/kg oral gavage, fasted) | Cmax ([1]; 10 mg/kg oral gavage, fasted) | Tmax ([1]; 10 mg/kg oral gavage, fasted) | half-life ([1]; 10 mg/kg oral gavage, fasted) | MRT last ([1]; 10 mg/kg oral gavage, fasted) | AUC(0-t) ([2]; 2 mg/kg intravenous injection) | Cmax ([2]; 2 mg/kg intravenous injection) | Tmax ([2]; 2 mg/kg intravenous injection) | clearance ([2]; 2 mg/kg intravenous injection) | half-life ([2]; 2 mg/kg intravenous injection) | MRT last ([2]; 2 mg/kg intravenous injection) | Vd ([2]; 2 mg/kg intravenous injection) | AUC(0-t) ([2]; 5 mg/kg oral gavage, fasted) | other results |
| --- | --- | --- | --- | --- | --- | --- | --- | --- | --- | --- | --- | --- | --- | --- | --- | --- | --- | --- | --- | --- | --- |
| N#Cc1ccc(S(=O)(=O)N2CC(=C3CN(C(=O)[C@H](CO)c4ccccc4)C3)C2)cc1 [Compound 65, (S)-4-(1'-(3-hydroxy-2-phenylpropionyl)-1',4'-dihydro-2H,2'H-[3,3'-diazetidinylidene]-1(4H)-ylsulfonyl)benzonitrile] | 394 ng·h/mL | 689 ng/mL | 0.08 h | 42.2 mL/min/kg | 0.64 h | 0.58 h | 1.56 L/kg | 1730 ng·h/mL | 993 ng/mL | 0.25 h | 1.53 h | 2.24 h | 8570 ng·h/mL | 1770 ng/mL | 0.14 h | 3.72 mL/min/kg | 5.81 h | 5.53 h | 1.55 L/kg | 19500 ng·h/mL | HGB (wild-type mice; [4]): 15.1 g/dL; ATP (wild-type mice; [4]): 481.5 µg/mL; 2,3-DPG (wild-type mice; [4]): 1417.4 µg/mL; HGB (wild-type mice; [5]): 14.9 g/dL; ATP (wild-type mice; [5]): 486.5 µg/mL; 2,3-DPG (wild-type mice; [5]): 1417.4 µg/mL; HGB (wild-type mice; [6]): 14.9 g/dL; ATP (wild-type mice; [6]): 475.9 µg/mL; 2,3-DPG (wild-type mice; [6]): 1363.0 µg/mL; Cmax ([2]; 5 mg/kg oral gavage, fasted): 2480 ng/mL; Tmax ([2]; 5 mg/kg oral gavage, fasted): 1.33 h; half-life ([2]; 5 mg/kg oral gavage, fasted): 4.47 h; MRT last ([2]; 5 mg/kg oral gavage, fasted): 5.28 h; AC50 [3, 7]: 251 nM; AC50 [3, 8]: 84.4 nM; AC50 [3, 9]: 140 nM; AC50 [3, 10]: 145 nM |
| O=C([C@H](CO)c1ccc(F)cc1F)N1CC(=C2CN(S(=O)(=O)c3ccccn3)C2)C1 [Compound 83, (S)-2-(2,4-difluorophenyl)-3-hydroxy-1-(1'-(pyridin-2-ylsulfonyl)-1',4'-dihydro-2H,2'H-[3,3'-diazetidinylidene]-1(4H)-yl)propan-1-one] | 537 ng·h/mL | 731 ng/mL | 0.08 h | 29.9 mL/min/kg | 4.91 h | 2.12 h | 5.11 L/kg | 3300 ng·h/mL | 1740 ng/mL | 0.25 h | 3.43 h | 3.2 h | 3110 ng·h/mL | 1590 ng/mL | 0.08 h | 11.2 mL/min/kg | 3.72 h | 2.79 h | 1.93 L/kg | 12200 ng·h/mL | HGB (wild-type mice; [11]): 15.3 g/dL; ATP (wild-type mice; [11]): 476.9 µg/mL; 2,3-DPG (wild-type mice; [11]): 1454.1 µg/mL; HGB (wild-type mice; [12]): 15.4 g/dL; ATP (wild-type mice; [12]): 472.1 µg/mL; 2,3-DPG (wild-type mice; [12]): 1444.5 µg/mL; HGB (wild-type mice; [13]): 14.6 g/dL; ATP (wild-type mice; [13]): 474.1 µg/mL; 2,3-DPG (wild-type mice; [13]): 1441.8 µg/mL; Cmax ([2]; 5 mg/kg oral gavage, fasted): 3300 ng/mL; Tmax ([2]; 5 mg/kg oral gavage, fasted): 0.67 h; half-life ([2]; 5 mg/kg oral gavage, fasted): 5.21 h; MRT last ([2]; 5 mg/kg oral gavage, fasted): 4.51 h; AC50 [3, 7]: 21.8 nM; AC50 [3, 8]: 20.9 nM; AC50 [3, 9]: 24.8 nM; AC50 [3, 10]: 11.7 nM |
